Measurements as given in patent US20090131356A1, “miR-15, miR-26, miR-31, miR-145, miR-147, miR-188, miR-215, miR-216, miR-331, mmu-miR-292-3P REGULATED GENES AND PATHWAYS AS TARGETS FOR THERAPEUTIC INTERVENTION” (ASURAGEN, INC., priority 2006, published 2009).

Assays:
[1] = system: metastatic lung cancer cells; test: Alamar Blue proliferation assay, average over metastatic luciferase-expressing lung cancer cell lines; format: cell-based, human; conditions: average of 5 metastatic luc lung cancer cell lines; vs negative control miRNA (=100%); 72 hours
Text: The inventors assessed the therapeutic effect of hsa-miR-147 for lung cancer by using 12 individual lung cancer cell lines. To measure cellular proliferation of lung cancer cells, the following parental non-small cell lung cancer (NSCLC) cells were used: cells derived from lung adenocarcinoma (A549, H1299, H522, H838, Calu-3, HCC827, HCC2935), cells derived from lung squamous cell carcinoma (H520, H226), cells derived from lung adenosquamous cell carcinoma (H596), cells derived from lung bronchioalveolar carcinoma (H1650), and cells derived from lung large cell carcinoma (H460). In addition to these parental cell lines, highly metastatic NSCLC cells were used that stably express the firefly luciferase gene: A549-luc, H460-luc, HCC827-luc, H1650-luc, H441-luc. Unlike the parental cell lines, these metastatic cells readily migrate to distant sites of the test animal and form metastases upon subcutaneous, orthotopic, or intravenous injection. Synthetic hsa-miR-147 or negative control miRNA was delivered via lipid-based transfection into A549, H1299, H522, H838, Calu-3, HCC827, HCC2935, H520, H596, H1650, H460, A549-luc, H460-luc, HCC827-luc, H1650-luc, H441-luc cells and via electroporation into H226 cells. […]

[2] = system: PC3 human prostate cancer cells; test: Long-term growth curve with repeated electroporation, PC3; format: cell-based; conditions: 1.6 μM electroporated, repeated on days 7 and 14; by day 21
Method: To evaluate the therapeutic activity of hsa-miR-147 over an extended period of time, the inventors conducted growth curve experiments in the presence of miRNA for up to 21 days. Since in vitro transfections of naked interfering RNAs, such as synthetic miRNA, are transient by nature and compromised by the dilution of the oligo during ongoing cell divisions, miRNA was administered at multiple time points (Bartlett et al., 2006; Bartlett et al., 2007). To accommodate miRNA delivery into a large quantity of cells, the inventors employed the electroporation method to delivery hsa-miR-147 or negative control miRNA into PC3 and Du145 human prostate cancer cells. Briefly, 1×10^6 PC3 cells and 0.5×10^6 Du145 cells were electroporated with 1.6 μM hsa-miR-147 or negative control using the BioRad Gene Pulser Xcell™ instrument (BioRad Laboratories Inc., Hercules, Calif., USA), seeded and propagated in regular growth medium. Experiments with PC3 and Du145 cells were carried out in triplicates. When the control cells reached confluence (days 7 and 14), cells were harvested, counted and electroporated again with the respective miRNAs. […] The population doubling was calculated from these electroporation events using the formula PD=ln(Nf/N0)/ln2 and adjusting for the fact that approximately 72% of newly seeded cells adhere to the plate. […]

A549 and H1299 cells = test: Dose-dependent Alamar Blue proliferation assay (0 pM to 3 nM); format: cell-based, human; conditions: for % proliferation: normalized to mock-transfected cells (0 pM miRNA)
Method: The inventors determined sensitivity and specificity of hsa-miR-147 by administering hsa-miR-147 or negative control miRNA at increasing concentrations, ranging from 0 pM to 3 nM. Delivery of miRNA and cellular proliferation of A549 and H1299 cells was assessed as described above. Alamar Blue values were normalized to values obtained from mock-transfected cells (0 pM=100% proliferation). As shown in FIG. 3 and Table 8, increasing amounts of negative control miRNA had no effect on cellular proliferation of A549 or H1299 cells. In contrast, the growth-inhibitory phenotype of hsa-miR-147 is dose-dependent and correlates with increasing amounts of hsa-miR-147. Hsa-miR-147 induces a therapeutic response at concentrations as low as 300 pM.

## hsa-miR-147: Synthetic pre-miR-147 (Ambion AM17100; Dharmacon in vivo); mature sequence GUGUGUGGAAAUGCUUCUGC, MIMAT0000251, SEQ ID NO:114 (synthetic pre-miR (Ambion/Dharmacon), chemistry not given here; listed as Homo sapiens)
[1]
  inhibition of cell growth, on average: 42%
[2]
  fate of PC3 cells in long-term growth curve: eliminated
A549 and H1299 cells; A549 Cells, 3 pM
  % proliferation: 104.77%
A549 and H1299 cells; A549 Cells, 30 pM
  % proliferation: 99.22%
A549 and H1299 cells; A549 Cells, 300 pM
  % proliferation: 88.24%
A549 and H1299 cells; A549 Cells, 3,000 pM
  % proliferation: 75.78%
A549 and H1299 cells; H1299 Cells, 3 pM
  % proliferation: 93.08%
A549 and H1299 cells; H1299 Cells, 30 pM
  % proliferation: 88.20%
A549 and H1299 cells; H1299 Cells, 300 pM
  % proliferation: 81.82%
A549 and H1299 cells; H1299 Cells, 3,000 pM
  % proliferation: 69.70%
A549 and H1299 cells; concentrations 0 pM to 3 nM, normalized to mock-transfected cells
  lowest concentration inducing a therapeutic response: 300 pM
